Laboratory results taken from patent US5474757A, “Prevention of acetaminophen overdose toxicity with organosulfur compounds” (priority 1992, dated 1995).
Several values for one entry are separate records, joined by “and”; a condition that tells them apart may be missing. Equal values may be shown once. Entries after “also recorded” stand apart in the source; their conditions may differ. Read-outs that look alike come from different tables or passages of the source.

Tests used:
[1] = system: acetaminophen bioactivation; settings: cited from earlier work
[2] = system: acetaminophen overdose; settings: cited from earlier work; for protection in acetaminophen overdose: Prescott et al.; for protective action: animals
[3] = system: acetaminophen-induced hepatotoxicity; test: animal or person
From the text: Blood samples were obtained from the jugular vein of CO2 -anesthetizedanimals. The blood was allowed to clot at room temperature and serum was separated by centrifugation. […] Biochem. Biophys.
Randomly-selected samples of the major hepatic lobe were fixed in 10% buffered formalin for histological evaluation. Samples were subsequently embedded in Paraplast (Fisher Scientific) and sectioned at 6 μm on a rotary microtome. Tissue sections were stained with hematoxylin-eosine-phloxine for examination. Extent of tissue damage was determined using a Presage CV-6 Image Analysis System (Advanced Imaging Concepts, Inc.). Images of randomly-selected slides (3 slides/animal, 2-3 animals/group) containing full cross sections of the major hepatic lobe were projected onto a computer screen and the image captured. The areas of damage were then outlined on the screen and the areas quantated using interactive software. The area of damage was shown as a percentage of the total hepatic area for each section. All determinations were made without knowledge of treatment group.
Data were analyzed by the Newman-Keuls multiple comparison procedure on the rank score analysis.
All experiments were replicated at least once.
As a Comparative Example, 300 mg/kg N-acetylcysteine was also administered immediately after administration of 0.2 g/kg acetaminophen.
As a Comparative Example, 300 mg/kg N-acetylcysteine was also administered 1 hour after administration of 0.2 g/kg acetaminophen.

[4] = system: hepatotoxicity; settings: cited from earlier work
[5] = system: acetaminophen-induced hepatotoxicity; test: Protective effect against acetaminophen overdose in rats (serum GPT, LDH, liver damage); format: in vivo, rat (male Fisher 344)
Method: Brady et al., "Effect of […] […] Biochem. […] Extent of tissue damage was determined using a […]-6 Image Analysis System (Advanced Imaging Concepts, Inc.). […] All determinations were made without knowledge of treatment group. […] All experiments were replicated at least once.

[6] = system: P-450 1A2; test: Hepatic microsomal ethoxyresorufin (EORR) dealkylase activity after a single oral dose in mice; format: in vivo, mouse
Method: (§1) Biochem. Biophys. 238:42-48 (1985).
(§2) In Example 3, this effect was studied in mice. In Example 3, changes in hepatic monooxygenase enzymes after a single oral dose of DASO2 were studied. DASO2 (50 mg/kg) was administrated to mice intragastrically and sacrificed at the indicated time. Control (0 time) mice received distilled water only.
(§3) Hepatic microsomal NDMA demethylase activity (O) is expressed as nmol HCHO produced/min/mg. Pentoxyresorufin ([ ]) and ethoxyresorufin dealkylase activities are expressed as pmol resorufin produced/min/mg. Each point represents the mean ±S.D. of five separate microsomal preparations. *p<0.05 compared to control.

[7] = system: P-450 2E1; settings: cited from earlier work; for liver microsomal P-450 2E1-dependent (NDMA demethylase) activity: treatment of rats
[8] = system: P-450 2E1; test: Hepatic microsomal NDMA demethylase activity after a single oral dose in mice; format: in vivo, mouse; settings: for NDMA demethylase activity, % of the control level: 50 mg/kg single oral dose
Method: as §1, §2, §3

[9] = system: P-450 2E1; settings: isolated rat liver microsomes; cited from earlier work
[10] = system: p-nitrophenol hydroxylase; settings: isolated rat liver microsomes; cited from earlier work
[11] = orally less than 24 hours after the overdose
[12] = APAP only, 0.2 g/kg oral, fasted mice, 24 h
[13] = 5 mg/kg oral, 1 h after APAP 0.4 g/kg
[14] = 5 mg/kg oral, 3 hours after APAP 0.4 g/kg
[15] = 15 mg/kg oral, 1 h after APAP 0.4 g/kg
[16] = 50 mg/kg oral, 1 hour after APAP 0.4 g/kg, mean ± SD of five rats
[17] = 50 mg/kg oral, 3 hours after APAP 0.4 g/kg
[18] = 50 mg/kg oral, 6 hours after APAP 0.4 g/kg
[19] = 5 mg/kg oral, immediately (0 min) after APAP 0.2 g/kg
[20] = 10 mg/kg oral, 20 min after APAP 0.2 g/kg
[21] = 25 mg/kg oral, 20 min after APAP 0.2 g/kg
[22] = 25 mg/kg oral, 1 hour after APAP 0.2 g/kg
[23] = 25 mg/kg oral, immediately (0 min) after APAP 0.2 g/kg
[24] = 50 mg/kg oral, immediately (0 min) after APAP 0.2 g/kg
[25] = 600 mg/kg oral, 1 hour after APAP 0.4 g/kg
[26] = 600 mg/kg oral, 6 hours after APAP 0.4 g/kg
[27] = 300 mg/kg oral, 1 hour after APAP 0.2 g/kg
[28] = 300 mg/kg oral, immediately after APAP 0.2 g/kg

SMILES: CN/C(=N/CCSCc1nc[nH]c1C)NC#N [cimetidine]
- inhibition of acetaminophen bioactivation [1]: inhibit acetaminophen bioactivation

SMILES: NCCS [cysteamine]
- protection in acetaminophen overdose [2]: some protection

SMILES: N[C@@H](CS)C(=O)O [L-cysteine]
- protective action [2]: protective action
- effectiveness in acetaminophen overdose [2, 11]: effective

SMILES: CSCC[C@H](N)C(=O)O [L-methionine]
- protection in acetaminophen overdose [2]: some protection
- protective action [2]: protective action
- effectiveness in acetaminophen overdose [2, 11]: effective

SMILES: C[S+](C)[O-] [dimethyl sulfoxide]
- inhibition of acetaminophen bioactivation [1]: inhibit acetaminophen bioactivation

SMILES: CC(=O)Nc1ccc(O)cc1 [APAP, N-acetyl-p-aminophenol, reference compound]
- Extent of liver damage [3, 12]: 26-40%
- LDH [3, 12]: 17227 ± 3464 U/L
- Survival [3, 12]: 2/5
- increase of serum LDH ([3]; acetaminophen 0.2 g/kg, mice): 20 fold
- liver histology ([3]; acetaminophen 0.2 g/kg, surviving mice (FIG. 2B)): hepatocellular necrosis; also recorded: typical centrilobular degeneration, necrosis, and inflammation
- plasma acetaminophen level always associated with hepatic damage ([4]; 4 hours after ingestion): greater than 300 mcg/ml
- plasma acetaminophen level always associated with hepatic damage ([4]; 12 hours after ingestion): greater than 50 mcg/ml
- fatalities ([4]; acute overdoses of less than 15 g): rare
- single dose after which hepatotoxicity may occur ([4]; in vivo): 7.5 to 10 g
- plasma acetaminophen half-life above which hepatic necrosis is likely ([4]; overdose): exceeds 4 hours

SMILES: C=CCS(=O)(=O)CC=C [DASO2, diallyl sulfone]
- Extent of liver necrosis (grade) [5, 13]: 1
- GPT [5, 13]: 162 ± 27.3 U/L
- LDH [5, 13]: 377 ± 71 U/L
- Extent of liver damage [5, 14]: 23-38%
- GPT [5, 14]: 139 ± 46 U/L
- Extent of liver necrosis (grade) [5, 15]: 1
- GPT [5, 15]: 52 ± 8.2 U/L
- LDH [5, 15]: 222 ± 44 U/L
- Extent of liver necrosis (grade) ([5]; 50 mg/kg oral, 1 h after APAP 0.4 g/kg): 0
- Extent of liver damage ([5]; 50 mg/kg oral, 1 hour after APAP 0.4 g/kg): 0-5%
- GPT [5, 16]: 48 ± 9 U/L and 48 ± 9.6 U/L
- LDH [5, 16]: 279 ± 50 U/L and 279 ± 41 U/L
- Extent of liver necrosis (grade) ([5]; 50 mg/kg oral, 3 h after APAP 0.4 g/kg): 1
- Extent of liver damage [5, 17]: 4-8%
- GPT [5, 17]: 133 ± 64 U/L
- LDH [5, 17]: 315 ± 120 U/L
- Extent of liver necrosis (grade) ([5]; 50 mg/kg oral, 6 h after APAP 0.4 g/kg): 2
- Extent of liver damage [5, 18]: 21-40%
- GPT [5, 18]: 182 ± 47 U/L
- LDH [5, 18]: 375 ± 111 U/L
- minimal effective dose ([5]; Rattus norvegicus, rats, read-out: low dose at which protective effect was demonstrated): 5 mg/kg
- ethoxyresorufin (EORR) dealkylase activity, % of control level ([6]; 50 mg/kg single oral dose, 0.5 hours): 79%
- ethoxyresorufin (EORR) dealkylase activity, % of control level ([6]; 50 mg/kg single oral dose, 1 hour): 39%
- ethoxyresorufin (EORR) dealkylase activity, % of control level ([6]; 50 mg/kg single oral dose, 3 hours): 52%
- ethoxyresorufin (EORR) dealkylase activity, % of control level ([6]; 50 mg/kg single oral dose, 6 hours): 46%
- EORR dealkylase activity ([6]; 50 mg/kg single oral dose, after 15 hours): returned to control levels
- hepatic cytochrome P-450 1A2 activity ([6]; oral administration, mice): rapid decreases
- Extent of liver damage [3, 19]: 3-5%
- GPT [3, 19]: 51 ± 8 U/L
- LDH [3, 19]: 433 ± 98 U/L
- Survival [3, 19]: 5/5
- GPT [3, 20]: 212 ± 1 U/L
- LDH [3, 20]: 16639 ± 8578 U/L
- Survival [3, 20]: 5/5
- GPT [3, 21]: 89 ± 13 U/L
- LDH [3, 21]: 648 ± 231 U/L
- Survival [3, 21]: 5/5
- Extent of liver damage [3, 22]: 3-10%
- GPT [3, 22]: 110 ± 70 U/L
- LDH [3, 22]: 1340 ± 1568 U/L
- Survival [3, 22]: 5/5
- Extent of liver damage [3, 23]: 5-10%
- GPT [3, 23]: 66 ± 18 U/L and 84 ± 37 U/L
- LDH [3, 23]: 611 ± 252 U/L
- Survival [3, 23]: 5/5
- Extent of liver damage [3, 24]: 4-9%
- GPT [3, 24]: 79 ± 5 U/L
- LDH [3, 24]: 772 ± 1138 U/L and 772 ± 138 U/L
- Survival [3, 24]: 5/5
- ED (maximal) ([3]; Mus musculus, read-out: dose sufficient to produce maximal protection): 5 mg/kg
- minimal effective dose ([3]; Mus musculus, read-out: low dose at which protective effect was demonstrated): 5 mg/kg
- liver microsomal NDMA demethylase activity ([7]; 200 mg/kg, rats): marked decrease
- liver microsomal P-450 2E1-dependent (NDMA demethylase) activity [7]: decreased
- NDMA demethylase activity, % of the control level ([8]; 0.5 hours): 31%
- NDMA demethylase activity, % of the control level ([8]; 1 hour): 54%
- NDMA demethylase activity, % of the control level ([8]; 3 hours): 49%
- NDMA demethylase activity, % of the control level ([8]; 6 hours): 73%
- hepatic cytochrome P-450 2E1 activity ([8]; oral administration, mice): rapid decreases

SMILES: CC(=O)N[C@@H](CS)C(=O)O [N-AC, N-acetyl-L-cysteine, reference compound]
- Extent of liver damage [5, 17]: 17-38%
- GPT [5, 17]: 135 ± 40 U/L
- prevention of liver necrosis and GPT elevation ([5]; 50 mg/kg, 3 hours after APAP, rats): partially prevented the development of liver necrosis and the elevation of the GPT level
- Extent of liver damage [5, 25]: 1-5%
- GPT [5, 25]: 47 ± 4 U/L
- LDH [5, 25]: 174 ± 35 U/L
- Extent of liver damage [5, 26]: 13-28%
- GPT [5, 26]: 153 ± 62 U/L
- LDH [5, 26]: 269 ± 92 U/L
- protection against liver toxicity ([5]; 600 mg/kg, 1 hr after APAP, compared with DASO2 50 mg/kg, rats): as effective as DASO2 (50 mg/kg) in preventing liver toxicity
- protection ([5]; 600 mg/kg, 6 hours after APAP, rats): partial protection
- dosage needed for similar protection relative to DAS / DASO2 ([5]; N-acetylcysteine dose versus DAS and DASO2 dose): more than ten-fold higher
- protective action [2]: protective action
- effectiveness in acetaminophen overdose ([2]; given orally): effective
- effectiveness in acetaminophen overdose [2, 11]: effective
- Extent of liver damage [3, 27]: 10-17%
- GPT [3, 27]: 131 ± 68 U/L
- LDH [3, 27]: 1140 ± 96 U/L
- Survival [3, 27]: 5/5
- Extent of liver damage [3, 28]: 0%
- GPT [3, 28]: 56 ± 4 U/L
- LDH [3, 28]: 629 ± 124 U/L
- Survival [3, 28]: 5/5
- protection against hepatotoxicity ([3]; 300 mg/kg, 1 hour after acetaminophen, mice): partial protection
- protection against acetaminophen toxicity ([3]; 300 mg/kg, immediately after acetaminophen, mice): protected against acetaminophen toxicity
- effectiveness against acetaminophen toxicity ([3]; 3 hours after acetaminophen dosing, mice (data not shown)): neither DASO2, N-AC nor the combination treatment was effective

SMILES: C=CC[S+]([O-])CC=C [DASO, diallyl sulfoxide]
- liver microsomal P-450 2E1-dependent (NDMA demethylase) activity [7]: decreased
- inhibition of P-450 2E1-catalyzed NDMA demethylase [9]: competitively
- inhibition of p-nitrophenol hydroxylase [10]: competitively

SMILES: CCO [ethanol]
- inhibition of acetaminophen bioactivation [1]: inhibit acetaminophen bioactivation
